Key:
[1] = test system: A. wodanis strains; details: have been reported; cited from earlier work
[2] = test system: A. wodanis strain 89/09/5532 (1); assay: Antibiotic susceptibility testing on LB plates; type: cell-based, Aliivibrio wodanis; details: 2 μg/mL, 12° C. for 2 days
Protocol: (§1) Antibiotic susceptibility testing was done by streaking A. wodanis cells onto LB plates supplemented with 2.5% NaCl and one of the following antibiotics: Chloramphenicol (2 μg/mL, Tetracycline (10 μg/mL), Carbenicillin (100 or 200 μg/mL) or Kanamycin (50 or 100 μg/mL). A. wodanis was regarded as susceptible (score=0) if no growth was detected, as intermediate susceptible (score=0.5) if poor growth was detected, or as resistant (score=1) if good growth was detected. The tested concentrations of antibiotics were similar to the recommended working concentrations for E. coli, except Chloramphenicol that was tested at 2 μg/mL (instead of 25 μg/mL). If the test scored as “resistant”, then the test was redone using 2× of the recommended concentration. All A. wodanis strains were streaked onto same agar plate and grown at 12° C. for 2 days.

[3] = test system: A. wodanis strain 02/09/382 (8); assay: Antibiotic susceptibility testing on LB plates; type: cell-based, Aliivibrio wodanis; details: 2 μg/mL, 12° C. for 2 days
Protocol: as §1

[4] = test system: A. wodanis strain 06/09/170 (27); assay: Antibiotic susceptibility testing on LB plates; type: cell-based, Aliivibrio wodanis; details: 2 μg/mL, 12° C. for 2 days
Protocol: as §1

[5] = test system: A. wodanis strain 02/09/569 (7); assay: Antibiotic susceptibility testing on LB plates; type: cell-based, Aliivibrio wodanis; details: 2 μg/mL, 12° C. for 2 days
Protocol: as §1

[6] = test system: A. wodanis strain 88/09/441 (12) (T); assay: Antibiotic susceptibility testing on LB plates; type: cell-based, Aliivibrio wodanis; details: 2 μg/mL, 12° C. for 2 days
Protocol: as §1

[7] = test system: A. wodanis strain 03/09/160 (37); assay: Antibiotic susceptibility testing on LB plates; type: cell-based, Aliivibrio wodanis; details: 2 μg/mL, 12° C. for 2 days
Protocol: as §1

[8] = test system: A. wodanis strain 04/60/17347 (35); assay: Antibiotic susceptibility testing on LB plates; type: cell-based, Aliivibrio wodanis; details: 2 μg/mL, 12° C. for 2 days
Protocol: as §1

[9] = test system: A. wodanis strain 01/09/401 (11); assay: Antibiotic susceptibility testing on LB plates; type: cell-based, Aliivibrio wodanis; details: 2 μg/mL, 12° C. for 2 days
Protocol: as §1

[10] = test system: A. wodanis strain 06/09/178 (29); assay: Antibiotic susceptibility testing on LB plates; type: cell-based, Aliivibrio wodanis; details: 2 μg/mL, 12° C. for 2 days
Protocol: as §1

[11] = test system: A. wodanis strain 90/09/325 (5); assay: Antibiotic susceptibility testing on LB plates; type: cell-based, Aliivibrio wodanis; details: 2 μg/mL, 12° C. for 2 days
Protocol: as §1

[12] = test system: A. wodanis strains; assay: Antibiotic resistance test, summary for all strains; type: cell-based, Aliivibrio wodanis; details: the twelve strains used in this study
Protocol: Next, we tested for resistance to antibiotics, four of which are commonly used in biotechnological applications, namely carbenicillin, kanamycin, tetracycline and chloramphenicol.
as §1

[13] = test system: A. wodanis strain K7F1 150913; type: cell-based, Aliivibrio wodanis; details: 2 μg/mL, 12° C. for 2 days
Protocol: as §1

[14] = test system: molecular beacon probe; assay: DNA polymerase molecular beacon activity assay; type: biochemical; details: affinity purified enzyme expressed in A. wodanis 03/09/160; increasing enzyme
From the text: Activity assay for AsPoIII is based on a molecular beacon probe (5″-GGCCCGT^Dabcyl[…]^FAMACGGGCCGTCAAGTT CATG […]-3′ (SEQ ID NO:46)) (modified from Summerer, 2008). The molecular beacon probe consists of a 23mer loop that is connected by a GC-rich 8mer stem region (the 8-mer stem region consists of two 8 nucleotide sequences-sequences are indicated in italics) and a 43mer extension. The fluorophores Dabcyl and FAM are attached to the indicated “T” nucleotides. Due to the loop formation the fluorophores Dabcyl and FAM are in close proximity and thus quenched. Upon extension by the DNA polymerase I of the primer (5″-GTGGTGCGAAATTTCTGAC-3′ (SEQ ID NO:47)) that is annealed to the molecular beacon template the stem is opened and the increase in distance of the two fluorophores is measured by the restoration of FAM fluorescence (excitation 485 nm, emission 518 nm). Assay was monitored in 50 μL reactions containing 0.2 μM substrate (molecular beacon) mixed with 0.2 mM dNTP in 1× reaction buffer (250 mM Tris-HCl, pH 8.5, 250 mM, KCl, 25 mM MgCl2) and 1×DB (1 mg/ml BSA, 5 mM DTT, 10% glycerol). The mixture was first incubated at 25° C. for 5 min, and the reaction was started by adding the purified enzyme. Increase in fluorescence was measured (excitation 485 nm, emission 518 nm) for 15 min with 10 sec intervals (total of 91 reads). […]

[15] = test system: ssDNA "molecular beacon" substrate; assay: Exonuclease I molecular beacon activity assay; type: biochemical; details: affinity purified enzyme expressed in A. wodanis 03/09/160; increasing enzyme
Protocol: The two enzyme activity assays used in this work are both based on so-called “molecular beacons”. Each “molecular beacon” consists of a hairpin shaped DNA oligonucleotide with an internally quenched fluorophore (in this case FAM). TAMRA was used as the FAM quencher. Enzyme activity of affinity purified AsExoI and MvExoI were tested in 50 μL reactions containing the following: 0.2 μM ssDNA “molecular beacon” substrate (5′-FAM-CGCCATCGGAGGTTC-TAMRA-3′ (SEQ ID NO:45)), 50 mM Tris pH 8.5, 30 mM MgCl2, 1 mM DTT, 0.2 mg/ml BSA, 2% glycerol and 8.5 nM enzyme (Exonuclease I). The reaction was carried out in a black 96-well fluorescence assay plate (Corning®), and increase in FAM fluorescence (excitation at 485 nm, emission at 518 nm) was measured as relative fluorescence units (RFU) at appropriate time intervals for 40 min.

Molecule: CC1(C)S[C@@H]2[C@H](NC(=O)[C@H](N)c3ccccc3)C(=O)N2[C@H]1C(=O)O [ampicillin]
- Resistance of A. wodanis strains (reported) [1]: Resistance

Molecule: O=C(N[C@H](CO)[C@H](O)c1ccc([N+](=O)[O-])cc1)C(Cl)Cl [CHL, chloramphenicol]
- Antibiotics resistance CHL 2 μg/mL [2]: 0
- Antibiotics resistance CHL 2 μg/mL [3]: 0
- Antibiotics resistance CHL 2 μg/mL [4]: 0
- Antibiotics resistance CHL 2 μg/mL [5]: 0
- Antibiotics resistance CHL 2 μg/mL [6]: 0
- Antibiotics resistance CHL 2 μg/mL [7]: 0
- Antibiotics resistance CHL 2 μg/mL [8]: 0
- Antibiotics resistance CHL 2 μg/mL [9]: 0
- Antibiotics resistance CHL 2 μg/mL [10]: 0
- Antibiotics resistance CHL 2 μg/mL [11]: 0
- sensitivity / resistance to antibiotics [12]: sensitive
- Antibiotics resistance CHL 2 μg/mL [13]: 0

Molecule: CO[C@@]1(NC(=O)Cc2cccs2)C(=O)N2C(C(=O)O)=C(COC(N)=O)CS[C@@H]21 [cefoxitin]
- Resistance of A. wodanis strains (reported) [1]: Resistance

B1: AsPoIII: DNA polymerase II from Aliivibrio salmonicida (SEQ ID NO: 38), His-tagged, expressed in A. wodanis (protein, listed as Aliivibrio salmonicida)
chain: LNSPHCGFLLTRQNKDIRDHSLVDLWVKCDDHIAHLLIENELAVIFFLKERQAEYESILTNAHIHYSIKSTSLHTFQHQPVFGLYFSSTQQKRVATALFEDHQLPTFEGDIRLADRYLMERFICGGMAFVGTPRQRKGYVEYRDVKIKSAEMTPEFSVVSLDVECSEKGILYSVALHCERDTRIIMVGPEETSDLPIEWVENEKALLLALESWFQTFDPDIIIGWNVINFDFNLLIKRAKWHNLAFRLGRGNSSLYFRESNKNRQQGFLSFPGRVVLDGIDALKTATYHFSSWSLESVSQELLNEGKSIHDPSDRMGEINRMYREDKCALAKYNLQDCVLVTRIFELTHLLEFVIERTKLTGIELDRVGGSVAAFTNLYLPRLHRAGYIAPNLESENWIASPGGYVMSSKPGLYESVLVLDFKSLYPSIIKTFRIDPLGLVEGLKLESGIDDGQAIEGFRGGRFHRTKHFLPNLIETLWSARDVAKKNNEKAFSQAIKIIMNSFYGVLGSSGCRFFDHRLASSITMRGHEIMKTTRELIESQGYEVIYGDTDSTFVTLGESMPSDEADKIGKQLVDHINQWWTAHLESEYAIDSALEIEYETHYRIFLMPTIRGSEMGSKKRYAGLIRKGDKEEIIFKGLETVRTDWTPLSQEFQKVLFDKVFHQQAVEEYVREYVDKTKSGEFDNKLIYRKRLRRQLDEYQKNVPPHVKAARIADTQNQKLGKPLMYQQGGWIEYIITTAGPEPIEYRQNPIDYDHYVEKQLKPIAEGILPFVNLSFTELSASQLGLF
modifications: 6xHis tag
- DNA polymerase activity (FAM fluorescence, RFU) [14]: dose-dependent

B2: AsExoI: Exonuclease I from Aliivibrio salmonicida (SEQ ID NO: 37), His-tagged, expressed in A. wodanis (protein, listed as Aliivibrio salmonicida)
chain: MPQDNAPSFFFFDYETWGTSPSLDRPCQFAGVRTDEDFNIIGEPLVIYCRPPIDYLPSPEACLITGITPQMAVSKGLSEPEFIAQIHNELSKPNTCSLGYNNIRFDDEVSRYTLYRNFFEPYGWSWQNGNSRWDLLDVMRAVYALRPEGIEWPKDEEGKPSFRLEKLSQANGIEHENAHDAMADVIATIELAKVVKKAQPKMFNYLLSMRHKKKAATLIDIIEMTPLMHVSGMFGVDRGNISWIVPVAWHPTNNNAVITIDLALDPAVFLELDAEQLHQRMYTKRSELGPDELPVPVKLVHLNKCPILAPAKTLTAENAIALNVDREACLRNLKVIRENPEIRQKLIDLYNIEPGYEKSSNVDTLLYDGFFSHADKTAIDMIRQSTPEQLIDFEPNVSDPRIKPLLFRYRARNFPHTLNESEQLRWQAHLQDYFETHMSDYETRFESLYLESEGNEKKTAILRAVYNYVQQLVS
modifications: 6xHis tag
- exonuclease activity (FAM fluorescence, RFU) [15]: dose-dependent
